According to US20250114345A1, “COMPOUNDS AND COMPOSITIONS AS CBP/P300 DEGRADERS AND USES THEREOF” (Oncopia Therapeutics, Inc. d/b/a/ SK Life Science Labs, priority 2023, published 2025):

Molecular target: T1, p300 (Homo sapiens, UniProt Q09472)
T1 construct: host or cells: A549 P300 HiBit cells
Test: P300 degradation, HiBit technology in A549 P300 HiBit cells (2 h)
Type: cell-based
Settings: 2 hrs post treatment; for Dmax: A549, A549 P300 HiBit cells; for DC50: A549 P300 HiBit cells
In short: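 Cells: A549 HiBiT-tagged lines, 0.2×10^4/well, F-12K + 10% HI-FBS, equilibrated overnight. Tx: serial dilution of cpd (10 mM DMSO stock). Readout: HiBiT lytic reagent, 10 min RT shaking, luminescence → potency, Dmax.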

T1 sequence (Q09472 whole entry): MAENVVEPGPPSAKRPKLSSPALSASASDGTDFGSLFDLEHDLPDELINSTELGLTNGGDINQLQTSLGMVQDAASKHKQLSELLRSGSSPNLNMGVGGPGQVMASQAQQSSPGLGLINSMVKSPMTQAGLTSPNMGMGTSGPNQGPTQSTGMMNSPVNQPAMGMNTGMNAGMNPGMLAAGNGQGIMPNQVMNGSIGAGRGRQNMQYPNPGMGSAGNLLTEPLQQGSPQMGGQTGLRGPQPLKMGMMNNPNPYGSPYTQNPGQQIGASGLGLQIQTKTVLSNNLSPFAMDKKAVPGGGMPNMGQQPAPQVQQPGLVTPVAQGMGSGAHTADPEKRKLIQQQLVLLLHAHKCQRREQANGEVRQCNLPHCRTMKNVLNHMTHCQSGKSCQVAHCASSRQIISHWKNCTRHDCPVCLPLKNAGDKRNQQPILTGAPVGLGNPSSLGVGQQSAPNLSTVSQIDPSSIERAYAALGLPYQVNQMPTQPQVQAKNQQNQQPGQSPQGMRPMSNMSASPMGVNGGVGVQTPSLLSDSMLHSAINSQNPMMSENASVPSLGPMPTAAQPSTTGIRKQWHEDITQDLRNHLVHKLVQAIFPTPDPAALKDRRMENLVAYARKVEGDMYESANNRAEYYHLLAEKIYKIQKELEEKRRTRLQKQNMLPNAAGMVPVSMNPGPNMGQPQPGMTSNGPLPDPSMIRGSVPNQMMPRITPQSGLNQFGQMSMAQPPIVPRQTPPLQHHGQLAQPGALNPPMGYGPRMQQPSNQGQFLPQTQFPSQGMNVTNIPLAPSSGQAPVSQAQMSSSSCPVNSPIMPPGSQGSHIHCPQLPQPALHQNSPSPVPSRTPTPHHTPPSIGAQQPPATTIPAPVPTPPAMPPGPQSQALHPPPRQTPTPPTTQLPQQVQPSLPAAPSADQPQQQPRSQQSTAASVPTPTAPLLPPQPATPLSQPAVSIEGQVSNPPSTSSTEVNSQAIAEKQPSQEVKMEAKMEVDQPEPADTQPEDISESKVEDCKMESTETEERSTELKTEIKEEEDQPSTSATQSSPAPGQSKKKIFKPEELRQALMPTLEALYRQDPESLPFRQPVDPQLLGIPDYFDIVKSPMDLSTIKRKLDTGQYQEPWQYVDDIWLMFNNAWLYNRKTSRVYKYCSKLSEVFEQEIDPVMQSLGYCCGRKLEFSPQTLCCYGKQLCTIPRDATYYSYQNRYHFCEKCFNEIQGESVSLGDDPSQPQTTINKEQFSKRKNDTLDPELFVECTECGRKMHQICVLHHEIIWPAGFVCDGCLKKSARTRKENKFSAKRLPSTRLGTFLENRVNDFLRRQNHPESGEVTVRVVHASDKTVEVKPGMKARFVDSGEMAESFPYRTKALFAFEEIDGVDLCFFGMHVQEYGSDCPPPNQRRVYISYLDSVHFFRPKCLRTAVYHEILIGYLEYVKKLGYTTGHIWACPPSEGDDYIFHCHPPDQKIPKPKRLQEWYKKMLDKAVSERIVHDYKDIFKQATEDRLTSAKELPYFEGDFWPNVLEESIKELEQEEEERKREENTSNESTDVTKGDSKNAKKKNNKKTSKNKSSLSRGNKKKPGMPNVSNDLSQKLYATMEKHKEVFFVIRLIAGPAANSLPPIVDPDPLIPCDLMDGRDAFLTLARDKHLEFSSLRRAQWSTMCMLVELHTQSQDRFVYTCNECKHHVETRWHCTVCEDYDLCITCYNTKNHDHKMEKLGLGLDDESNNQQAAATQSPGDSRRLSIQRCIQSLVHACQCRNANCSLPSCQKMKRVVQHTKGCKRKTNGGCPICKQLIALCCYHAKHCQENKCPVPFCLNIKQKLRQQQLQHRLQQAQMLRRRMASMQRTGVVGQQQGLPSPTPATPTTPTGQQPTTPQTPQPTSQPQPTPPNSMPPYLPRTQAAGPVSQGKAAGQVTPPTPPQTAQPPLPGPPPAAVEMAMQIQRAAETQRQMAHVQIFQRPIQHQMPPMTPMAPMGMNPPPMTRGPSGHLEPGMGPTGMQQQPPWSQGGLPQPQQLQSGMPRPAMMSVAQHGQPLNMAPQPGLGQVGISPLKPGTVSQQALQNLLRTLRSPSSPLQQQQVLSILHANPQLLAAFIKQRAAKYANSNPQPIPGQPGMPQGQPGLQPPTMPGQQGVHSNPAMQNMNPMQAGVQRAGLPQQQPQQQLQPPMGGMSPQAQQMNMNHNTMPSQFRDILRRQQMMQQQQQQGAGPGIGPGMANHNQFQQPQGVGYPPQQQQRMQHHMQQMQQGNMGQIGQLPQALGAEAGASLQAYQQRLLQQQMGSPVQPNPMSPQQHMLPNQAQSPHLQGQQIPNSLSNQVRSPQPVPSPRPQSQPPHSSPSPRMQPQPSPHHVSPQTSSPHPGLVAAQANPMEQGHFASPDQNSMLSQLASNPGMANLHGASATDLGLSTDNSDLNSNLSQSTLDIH

Compound: Cc1cc2c(N3CCCc4nc(-c5ccc(C(=O)NCC#Cc6cc7c(C89CC(C8)C(=O)NC9=O)cccc7o6)nc5)ncc43)cc(C3CCOCC3)cc2n(C)c1=O [Example B97, 5-(5-(1,3-dimethyl-2-oxo-7-(tetrahydro-2H-pyran-4-yl)-1,2-dihydroquinolin-5-yl)-5,6,7,8-tetrahydropyrido[3,2-d]pyrimidin-2-yl)-N-(3-(4-(2,4-dioxo-3-azabicyclo[3.1.1]heptan-1-yl)benzofuran-2-yl)prop-2-yn-1-yl)picolinamide]
- Dmax: < 20%
- DC50: 100 to 999 nM

Compound: Cn1cc(-c2ccc3c(c2)n(C)c(=O)n3C)c2cnc(-c3ccc(C(=O)NCC#Cc4ccc5occ(C6CCC(=O)NC6=O)c5c4)nc3)cc2c1=O (centres unmarked) [Example A129, 5-(8-(1,3-dimethyl-2-oxo-2,3-dihydro-1H-benzo[d]imidazol-5-yl)-6-methyl-5-oxo-5,6-dihydro-2,6-naphthyridin-3-yl)-N-(3-(3-(2,6-dioxo-piperidin-3-yl)benzo-furan-5-yl)prop-2-yn-1-yl)picolinamide]
- Dmax: > 80%
- DC50: 1 to 9.9 nM

Compound: Cc1cc(-c2cc(F)c(Nc3cc(C4CCOCC4)c4c(c3)n(C)c(=O)n4C)cc2C(F)(F)F)cnc1C(=O)NCC#Cc1cc2c(C3CCC(=O)NC3=O)cccc2o1 (centres unmarked) [Example A244, 5-(4-((1,3-dimethyl-2-oxo-7-(tetrahydro-2H-pyran-4-yl)-2,3-dihydro-1H-benzo[d]imidazol-5-yl)amino)-5-fluoro-2-(trifluoromethyl)phenyl)-N-(3-(4-(2,6-dioxopiperidin-3-yl)benzofuran-2-yl)prop-2-yn-1-yl)-3-methylpicolinamide]
- Dmax: 40 to 59%
- DC50: 10 to 99 nM

Compound: Cn1c(=O)n(C)c2c(C3CCOCC3)nc(-c3cccc4cc(-c5ccc(C(=O)NCC#Cc6ccc7occ(C8CCC(=O)NC8=O)c7c6)nc5)ncc34)cc21 (centres unmarked) [Example A135, 5-(8-(1,3-dimethyl-2-oxo-4-(tetrahydro-2H-pyran-4-yl)-2,3-dihydro-1H-imidazo[4,5-c]pyridin-6-yl)isoquinolin-3-yl)-N-(3-(3-(2,6-dioxopiperidin-3-yl)benzofuran-5-yl)prop-2-yn-1-yl)picolinamide]
- Dmax: > 80%
- DC50: 1 to 9.9 nM

Compound: Cn1c(=O)n(C)c2cc(-c3cccc4cc(-c5ccc(C(=O)NCC#Cc6cc7c(C8CCC(=O)NC8=O)cccc7o6)nc5)ncc34)ncc21 (centres unmarked) [Example A179, 5-(8-(1,3-dimethyl-2-oxo-2,3-dihydro-1H-imidazo[4,5-c]pyridin-6-yl)isoquinolin-3-yl)-N-(3-(4-(2,6-dioxopiperidin-3-yl)benzofuran-2-yl)prop-2-yn-1-yl)picolinamide]
- Dmax: 60 to 79%
- DC50: 1 to 9.9 nM

Compound: CCc1cc2c(cc(C)c(=O)n2C)c(-c2cccc3cc(-c4ccc(C(=O)NCC#Cc5ccc6occ(C7CCC(=O)NC7=O)c6c5)nc4)ncc23)n1 (centres unmarked) [Example B93, N-(3-(3-(2,6-dioxopiperidin-3-yl)benzofuran-5-yl)prop-2-yn-1-yl)-5-(8-(7-ethyl-1,3-dimethyl-2-oxo-1,2-dihydro-1,6-naphthyridin-5-yl)isoquinolin-3-yl)picolinamide]
- Dmax: 60 to 79%
- DC50: 1 to 9.9 nM

Compound: Cc1cc2c(N3CCCc4nc(-c5ccc(C(=O)NCC#Cc6ccc7occ(C8CCC(=O)NC8=O)c7c6)nc5)ncc43)nc(N3CCC3)cc2n(C)c1=O (centres unmarked) [Example B86, 5-(5-(7-(azetidin-1-yl)-1,3-dimethyl-2-oxo-1,2-dihydro-1,6-naphthyridin-5-yl)-5,6,7,8-tetrahydropyrido[3,2-d]pyrimidin-2-yl)-N-(3-(3-(2,6-dioxopiperidin-3-yl)benzofuran-5-yl)prop-2-yn-1-yl)picolinamide]
- Dmax: > 80%
- DC50: 1 to 9.9 nM

Compound: Cc1cc(N2CCN(C)c3cc(-c4ccc(C(=O)NCC#Cc5cc6c(C7CCC(=O)NC7=O)nccc6o5)nc4)ncc32)cc2c1n(C)c(=O)n2C (centres unmarked) [Example A209, N-(3-(4-(2,6-dioxo-piperidin-3-yl)furo [3,2-c]pyridin-2-yl)prop-2-yn-1-yl)-5-(1-methyl-4-(1,3,7-trimethyl-2-oxo-2,3-dihydro-1H-benzo[d]imidazol-5-yl)-1,2,3,4-tetrahydropyrido[3,4-b]pyrazin-7-yl)picolinamide]
- Dmax: > 80%
- DC50: < 1 nM

Compound: Cn1c(=O)n(C)c2c(N3CCOCC3)nc(-c3cccc4cc(-c5ccc(C(=O)NCC#Cc6cc7c(C8CCC(=O)NC8=O)nccc7o6)nc5)ncc34)cc21 (centres unmarked) [Example A206, 5-(8-(1,3-dimethyl-4-morpholino-2-oxo-2,3-dihydro-1H-imidazo[4,5-c]pyridin-6-yl)isoquinolin-3-yl)-N-(3-(4-(2,6-dioxopiperidin-3-yl)furo[3,2-c]pyridin-2-yl)prop-2-yn-1-yl)picolinamide]
- Dmax: > 80%
- DC50: < 1 nM

Compound: CC(C)c1cc(-c2cccc3cc(-c4ccc(C(=O)NCC#Cc5ccc6c(c5)N(C5CCC(=O)NC5=O)CC6)nc4)ncc23)cc2c1n(C)c(=O)n2C (centres unmarked) [Example A184, N-(3-(1-(2,6-dioxo-piperidin-3-yl)indolin-6-yl)prop-2-yn-1-yl)-5-(8-(7-isopropyl-1,3-dimethyl-2-oxo-2,3-dihydro-1H-benzo[d]imidazol-5-yl)isoquinolin-3-yl)picolinamide]
- Dmax: > 80%
- DC50: 10 to 99 nM

Compound: Cn1c(=O)n(C)c2cc(-c3cccc4cc(-c5cnc(C(=O)NCC#Cc6ccc7occ(C8CCC(=O)NC8=O)c7c6)c(Cl)c5)ncc34)ccc21 (centres unmarked) [Example A73, 3-chloro-5-(8-(1,3-dimethyl-2-oxo-2,3-dihydro-1H-benzo[d]imidazol-5-yl)isoquinolin-3-yl)-N-(3-(3-(2,6-dioxopiperidin-3-yl)benzofuran-5-yl)prop-2-yn-1-yl)picolinamide]
- Dmax: > 80%
- DC50: 1 to 9.9 nM

Compound: Cc1cc(-c2cnc(N(C)c3cc(C(C)C)c4c(c3)n(C)c(=O)n4C)cn2)cnc1C(=O)NCC#Cc1cccc(NC2CCC(=O)NC2=O)c1 (centres unmarked) [Example A50, N-(3-(3-((2,6-dioxopiperidin-3-yl)amino)phenyl)prop-2-yn-1-yl)-5-(5-((7-isopropyl-1,3-dimethyl-2-oxo-2,3-dihydro-1H-benzo [d]imidazol-5-yl)(methyl)amino)pyrazin-2-yl)-3-methylpicolinamide]
- Dmax: > 80%
- DC50: 10 to 99 nM

Compound: CC(C)c1cc(N2CCOc3cc(-c4ccc(C(=O)NCC#Cc5ccc6occ(C7CCC(=O)NC7=O)c6c5)nc4)c(C#N)cc32)cc2c1n(C)c(=O)n2C (centres unmarked) [Example A134, 5-(6-cyano-4-(7-iso-propyl-1,3-dimethyl-2-oxo-2,3-dihydro-1H-benzo[d]imidazol-5-yl)-3,4-dihydro-2H-benzo[b][1,4]oxazin-7-yl)-N-(3-(3-(2,6-dioxopiperidin-3-yl)benzofuran-5-yl)prop-2-yn-1-yl)picolinamide]
- Dmax: > 80%
- DC50: 1 to 9.9 nM

Compound: CN1C2CCC1CN(c1nc(-c3cccc4cc(-c5ccc(C(=O)NCC#Cc6ccc7occ(C8CCC(=O)NC8=O)c7c6)nc5)ncc34)cc3c1n(C)c(=O)n3C)C2 (centres unmarked) [Example A67, 5-(8-(1,3-dimethyl-4-(8-methyl-3,8-diazabicyclo[3.2.1]octan-3-yl)-2-oxo-2,3-dihydro-1H-imidazo [4,5-c]pyridin-6-yl)isoquinolin-3-yl)-N-(3-(3-(2,6-dioxopiperidin-3-yl)benzofuran-5-yl)prop-2-yn-1-yl)picolinamide]
- Dmax: 60 to 79%
- DC50: 1 to 9.9 nM

Compound: CC(C)c1cc(-c2cccc3cc(-c4ccc(C(=O)NCC#Cc5ccc6occ(C7CCC(=O)NC7=O)c6n5)nc4)ncc23)cc2c1n(C)c(=O)n2C (centres unmarked) [Example A159, N-(3-(3-(2,6-dioxo-piperidin-3-yl)furo[3,2-b]pyridin-5-yl)prop-2-yn-1-yl)-5-(8-(7-isopropyl-1,3-dimethyl-2-oxo-2,3-dihydro-1H-benzo [d]imidazol-5-yl)isoquinolin-3-yl)picolinamide]
- Dmax: 40 to 59%
- DC50: 10 to 99 nM

Compound: CC(C)c1cc(-c2cccc3cc(-c4ccc(C(=O)NCC#Cc5cc6c(ccn6C6CCC(=O)NC6=O)cn5)nc4)ncc23)cc2c1n(C)c(=O)n2C (centres unmarked) [Example A22, N-(3-(1-(2,6-Dioxopiperidin-3-yl)-1H-pyrrolo[3,2-c]pyridin-6-yl)prop-2-yn-1-yl)-5-(8-(7-isopropyl-1,3-dimethyl-2-oxo-2,3-dihydro-1H-benzo[d]imidazol-5-yl)isoquinolin-3-yl)picolinamide]
- Dmax: 20 to 39%
- DC50: 10 to 99 nM

Compound: CC(C)c1cc(-c2cccc3cc(-c4ccc(C(=O)NCC#Cc5nc6c(C7CCC(=O)NC7=O)cccc6n5C)nc4)ncc23)cc2c1n(C)c(=O)n2C (centres unmarked) [Example A186, N-(3-(4-(2,6-dioxo-piperidin-3-yl)-1-methyl-1H-benzo[d]imidazol-2-yl)prop-2-yn-1-yl)-5-(8-(7-iso-propyl-1,3-dimethyl-2-oxo-2,3-dihydro-1H-benzo[d]imidazol-5-yl)isoquinolin-3-yl)picolinamide]
- Dmax: < 20%
- DC50: > 1000 nM

Compound: COc1cc(N2CCOc3cc(-c4ccc(C(=O)NCC#Cc5ccc6occ(C7CCC(=O)NC7=O)c6c5)nc4)c(F)cc32)c2cc(C)c(=O)n(C)c2c1 (centres unmarked) [Example B147, N-(3-(3-(2,6-dioxopiperidin-3-yl)benzofuran-5-yl)prop-2-yn-1-yl)-5-(6-fluoro-4-(7-methoxy-1,3-dimethyl-2-oxo-1,2-dihydro-quinolin-5-yl)-3,4-dihydro-2H-benzo[b][1,4]oxazin-7-yl)picolinamide]
- Dmax: > 80%
- DC50: 1 to 9.9 nM

Compound: CC(C)c1cc(N2CCOc3cc(-c4ccc(C(=O)NCC#Cc5ccc6occ(C7CCC(=O)NC7=O)c6c5)nc4)c(Cl)cc32)cc2c1n(C)c(=O)n2C (centres unmarked) [Example A113, 5-(6-chloro-4-(7-isopropyl-1,3-dimethyl-2-oxo-2,3-dihydro-1H-benzo[d]imidazol-5-yl)-3,4-dihydro-2H-benzo[b][1,4]oxazin-7-yl)-N-(3-(3-(2,6-dioxopiperidin-3-yl)benzofuran-5-yl)prop-2-yn-1-yl)picolinamide]
- Dmax: > 80%
- DC50: 10 to 99 nM
